From paper PMC4585962, “A peptide factor secreted by Staphylococcus pseudintermedius exhibits properties of both bacteriocins and virulence factors” (Scientific Reports, 2015)
No end group written: not given here. *: point of attachment. For = O=C*

Tests used:
[1] = system: S. aureus; assay: Bactericidal test, plating on TSA after incubation; format: cell-based, Staphylococcus aureus; conditions: 1 × 10^4 CFU incubated with 1 μM bacteriocin for 30 minutes (data not shown)
[2] = Conformational stability by CD, ellipticity at 220 nm against temperature; format: physicochemical; conditions: 125 μg/ml in PBS, 20–90 °C at 1 °C/min
Protocol: The circular dichroism (CD) spectra of BacSp222 (125 μg/ml in PBS) were recorded using a J-715 spectropolarimeter (Jasco). The spectra were recorded at room temperature in the range 190–240 nm and were averaged over three independent passes. The amount of secondary structures was estimated by fitting the measured spectra to the reference spectra of natural native proteins (Prot, Jasco) or synthetic polypeptides (Yang, Jasco). To evaluate the conformational stability of the BacSp222 molecule at different temperatures, the ellipticity of the polarized light was recorded at 220 nm over the temperature range 20–90 °C at 1 °C/min increments.

[3] = system: adipose-derived stem cells (ASC); assay: Cytotoxicity, LDH and MTT assays; format: cell-based; conditions: 4 h exposure, said to be similar to the other cell types (Fig. S7)
Protocol: Human skin fibroblasts (HSF, ATCC CRL-2522), adipose-derived stem cells (ASCs, ATCC PCS-500-011), and HeLa human epithelioid cervix carcinoma cells (ATCC CCL-2) were maintained in Dulbecco’s modified Eagle’s medium (DMEM, Sigma) containing 1 g/l glucose, 10% (v/v) foetal bovine serum (FBS), 1 U/ml penicillin, 1 μg/ml streptomycin, and 2.5 μg/ml amphotericin B. Murine P388/D1 monocyte/macrophage cells (ATCC CCL-46) and murine RAW264.7 macrophage-like cells (ATCC TIB-71) were cultured in DMEM containing 4.5 g/l glucose, 5% (v/v) FBS, and antibiotics, as indicated above. Keratinocytes from human skin were grown in KBM Gold Medium (Lonza). All cells were incubated in standard conditions (5% CO2, 37 °C, >95% humidity). […] After a 30-min incubation (RT, in the dark), the reaction was stopped, and the absorbance was measured with a microplate reader (PowerWave X, BioTek Instruments) at 490 nm, followed by subtraction of the absorbance reference value at 690 nm. […] The absorbance of solubilized purple formazan was measured at 540 nm, followed by subtraction of the absorbance reference value at 690 nm. […] The amount of released haemoglobin was spectrophotometrically determined at 540 nm and compared with a positive control (erythrocytes lysed with 1% sodium dodecyl sulphate).

[4] = system: P388D1 cells; assay: NO synthesis (nitrite, Griess reagent); format: cell-based, murine; conditions: 24 h
Protocol: (§1) The murine monocyte/macrophage cell line P388/D1 and murine macrophage-like cell line RAW264.7 were grown in a 96-well plate in DMEM supplemented with 5% (v/v) FBS. Prior to the experiment, the medium was replaced with fresh DMEM enriched with 2% (v/v) of FBS (negative control) or supplemented with 1) 100 ng/ml lipopolysaccharide (LPS, Sigma), 2) 10 ng/ml IFN [drawing 9] (R&D Systems), 3) 0.01–1000 nM BacSp222, or 4) BacSp222 combined with LPS or IFN [drawing 10] . The cells were then cultured for another 24 h to induce iNOS expression and nitric oxide synthesis. The nitrite levels were measured in culture medium by a nitrate assay performed on a microplate. One hundred microliters of cultured media was incubated with 100 μl of Griess reagent (1% (w/v) sulphanilic acid/0.1% (w/v) N-(1-naphtyl) ethylenediaminedihydrochloride (Sigma) in 2.5% (v/v) H3PO4) at room temperature for 10 min. Then, the absorbance was measured at 545 nm using a microplate reader (PowerWave X, BioTek Instruments). Before use, the solution of BacSp222 was tested for LPS contamination using an E-TOXATE assay kit (Sigma). The measurements ascertained that the level of LPS in 1 μM bacteriocin solution was equal to or less than 3 pg/ml.

[5] = system: RAW264.7 cells; assay: NO synthesis (nitrite, Griess reagent); format: cell-based, murine; conditions: 24 h
Protocol: as §1

[6] = 0.01–1000 nM BacSp222 with LPS 100 ng/ml
[7] = nanomolar concentrations of BacSp222 with IFNγ 10 ng/ml

Substance: For-MAGLLRFLLSKGRALYNWAKSHVGKVWEWLKSGATYEQIKEWIENALGWR [BacSp222]
- colonies after plating on TSA [1]: complete absence of the colonies
- ellipticity at 220 nm at elevated temperatures [2]: lack of changes in ellipticity at 220 nm, up to 90 °C
- cytotoxic effect [3]: sigmoidal, dose-dependent cytotoxic effect
- effect on LPS-induced NO production [4, 6]: did not affect
- NO production after exposure to BacSp222 alone ([4]; at 100 and 1000 nM, DMEM 2% FBS, nitrite at 545 nm): able to produce NO
- NO release with BacSp222 together with IFNγ [4, 7]: released NO in a dose-dependent manner
- effect on LPS-induced NO production [5, 6]: did not affect
- NO production after exposure to BacSp222 alone ([5]; 0.01–1000 nM, DMEM 2% FBS, nitrite at 545 nm): Only P388D1 cells were able to produce NO
- NO release with BacSp222 together with IFNγ [5, 7]: released NO in a dose-dependent manner
